As a reminder, the EC50 is the concentration that produces a half-maximal response. Low readings indicate higher potency in that assay, high ones lower potency in that assay.

In one experiment the target is S1P1-GFP (U2OS) (Homo sapiens, UniProt P21453). Briefly: receptor internalization, imaging. The note with it: agonist; […] min, […]°C. It is filed as cell-based.
The next experiment has as its target ApoM-Fc (Homo sapiens, UniProt O95445). Briefly: intrinsic Trp fluorescence quenching. The class given is binding.

Molecules are shown by their SMILES.

S1P1-GFP (U2OS), sequence (P21453 whole entry): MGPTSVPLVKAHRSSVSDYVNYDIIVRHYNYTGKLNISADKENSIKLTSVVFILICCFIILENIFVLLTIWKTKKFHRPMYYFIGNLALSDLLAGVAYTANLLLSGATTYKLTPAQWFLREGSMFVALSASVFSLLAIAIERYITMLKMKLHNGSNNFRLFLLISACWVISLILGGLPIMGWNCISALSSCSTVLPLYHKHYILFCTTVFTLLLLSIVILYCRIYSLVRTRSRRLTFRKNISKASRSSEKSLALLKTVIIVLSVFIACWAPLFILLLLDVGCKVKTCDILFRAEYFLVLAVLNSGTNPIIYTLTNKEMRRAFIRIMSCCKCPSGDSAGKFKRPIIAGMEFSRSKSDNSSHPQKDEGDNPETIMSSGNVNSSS
ApoM-Fc, sequence (O95445 20-188 limits assumed): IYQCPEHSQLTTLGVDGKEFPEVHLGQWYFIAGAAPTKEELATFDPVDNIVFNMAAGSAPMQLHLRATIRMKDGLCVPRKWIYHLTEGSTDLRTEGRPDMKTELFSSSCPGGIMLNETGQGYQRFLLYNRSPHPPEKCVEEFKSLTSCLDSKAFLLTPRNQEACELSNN

Regarding `CCCCCCCCc1ccc(CCC(N)(CO)COP(=O)(O)O)cc1` (centres unmarked) [FTY720-P], the “receptor internalization, imaging” value at S1P1-GFP (U2OS) is “lower than that induced by FTY720-P, a potent and irreversible inducer of S1P1 endocytosis”.

In turn, `CCCCCCCCCCCCC/C=C/[C@@H](O)[C@@H](N)COP(=O)(O)O` [S1P] returned an EC50 on ApoM-Fc of around 220 nM.

Source of the values: PMC5680089 (Science signaling, 2017).
